Results from patent publication US10988524B2, “Modified relaxin B chain peptides and their therapeutic use” (priority 2018, dated 2021).
Non-standard residues stand in square brackets, D forms with d. Residues, ends and D or L forms follow the SMILES beside them. 1Nal = N[C@@H](Cc1cccc2ccccc12)C(=O)O; αMeS = C[C@](N)(CO)C(=O)O; Nle = CCCC[C@H](N)C(=O)O; Aib = CC(C)(N)C(=O)O

Molecular target: T1, RXFP1 (Homo sapiens, UniProt Q9HBX9)
T1 sequence (Q9HBX9 1-757): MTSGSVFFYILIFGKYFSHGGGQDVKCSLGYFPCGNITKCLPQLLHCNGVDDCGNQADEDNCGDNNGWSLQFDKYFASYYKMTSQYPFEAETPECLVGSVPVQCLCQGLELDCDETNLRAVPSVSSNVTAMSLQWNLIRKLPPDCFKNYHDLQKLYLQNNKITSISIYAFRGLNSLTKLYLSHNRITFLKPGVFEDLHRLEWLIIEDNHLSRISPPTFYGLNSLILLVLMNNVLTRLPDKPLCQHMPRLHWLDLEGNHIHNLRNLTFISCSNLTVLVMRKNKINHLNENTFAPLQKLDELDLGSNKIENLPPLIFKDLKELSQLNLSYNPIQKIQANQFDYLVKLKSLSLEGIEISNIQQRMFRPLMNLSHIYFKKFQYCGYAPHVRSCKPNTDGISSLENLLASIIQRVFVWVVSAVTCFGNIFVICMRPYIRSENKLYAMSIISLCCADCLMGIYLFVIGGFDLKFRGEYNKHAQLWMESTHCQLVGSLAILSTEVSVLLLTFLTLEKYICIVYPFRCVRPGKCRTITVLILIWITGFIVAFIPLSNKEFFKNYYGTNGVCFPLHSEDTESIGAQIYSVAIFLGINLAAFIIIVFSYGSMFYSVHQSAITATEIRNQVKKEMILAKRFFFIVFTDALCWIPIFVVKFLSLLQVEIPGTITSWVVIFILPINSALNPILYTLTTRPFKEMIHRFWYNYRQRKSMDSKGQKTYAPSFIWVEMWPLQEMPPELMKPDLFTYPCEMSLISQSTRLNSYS
Assay: OVCAR5 cAMP assay (RXFP1 agonist activity, HTRF)
Conditions: for Emax: OVCAR-5, read-out: cAMP assay in OVCAR 5 cells Emax, maximal intracellular cAMP relative to H2-relaxin in the same test occasion; for EC50: cAMP assay in OVCAR 5 cells EC50 (nM), OVCAR5 cells expressing endogenous RXFP1, cAMP by HTRF, 30 min at 37° C., 1 mM IBMX

`CCCC[C@H](NC(=O)CNC(=O)[C@H](CCC(=O)O)NC(=O)C(C)(C)NC(=O)C(C)(C)NC(=O)[C@@H](NC(=O)[C@H](CCC(N)=O)NC(=O)[C@H](C)NC(=O)[C@H](CCCNC(=N)N)NC(=O)[C@@H](NC(=O)[C@H](CCCCN)NC(=O)[C@H](CCC(=O)O)NC(=O)[C@H](CCCNC(=N)N)NC(=O)CNC(=O)[C@H](CCC(=O)O)NC(=O)[C@H](CC(C)C)NC(C)=O)C(C)C)[C@@H](C)CC)C(=O)N[C@@H](CO)C(=O)N[C@H](C(=O)N[C@@H](Cc1c[nH]c2ccccc12)C(=O)N[C@@H](C)C(=O)NC(C)(C)C(=O)N[C@@H](CCCNC(=N)N)C(=O)N[C@@H](CCCCN)C(=O)N[C@@H](CCCCN)C(N)=O)[C@@H](C)O` [compound 22] (Ac-LEGREKVRAQI[Aib][Aib]EG[Nle]STWA[Aib]RKK-NH2) was tested. Which Emax did it give?
Its Emax is 102%.

How did the Emax turn out when `CCCC[C@H](NC(=O)CNC(=O)[C@H](CCC(=O)O)NC(=O)C(C)(C)NC(=O)C(C)(C)NC(=O)[C@@H](NC(=O)[C@H](CCC(N)=O)NC(=O)[C@H](C)NC(=O)[C@H](CCCNC(=N)N)NC(=O)[C@@H](NC(=O)[C@H](CCCCN)NC(=O)[C@H](CCC(=O)O)NC(=O)[C@H](CCCNC(=N)N)NC(=O)CNC(=O)[C@H](CCC(=O)O)NC(=O)[C@H](CC(C)C)NC(C)=O)C(C)C)[C@@H](C)CC)C(=O)N[C@@H](CO)C(=O)N[C@H](C(=O)N[C@@H](Cc1c[nH]c2ccccc12)C(=O)N[C@H](C(=O)NC(C)(C)C(=O)N[C@@H](CCCNC(=N)N)C(=O)N[C@@H](CCCCN)C(=O)N[C@@H](CCCCN)C(N)=O)[C@@H](C)O)[C@@H](C)O` [compound 23] (Ac-LEGREKVRAQI[Aib][Aib]EG[Nle]STWT[Aib]RKK-NH2) was run?
Its Emax is 95%.

How did the Emax turn out when `CCCC[C@H](NC(=O)CNC(=O)[C@H](CCC(=O)O)NC(=O)C(C)(C)NC(=O)C(C)(C)NC(=O)[C@@H](NC(=O)[C@H](CCCCNC(C)=O)NC(=O)[C@H](C)NC(=O)[C@H](CCCNC(=N)N)NC(=O)[C@@H](NC(=O)[C@H](CCCCN)NC(=O)[C@H](CCC(=O)O)NC(=O)[C@H](CCCNC(=N)N)NC(=O)CNC(=O)[C@H](CCC(=O)O)NC(=O)[C@H](CC(C)C)NC(C)=O)C(C)C)[C@@H](C)CC)C(=O)N[C@@H](CO)C(=O)N[C@H](C(=O)N[C@@H](Cc1c[nH]c2ccccc12)C(=O)N[C@@H](CO)C(=O)NC(C)(C)C(=O)N[C@@H](CCCNC(=N)N)C(=O)N[C@@H](CCCCN)C(=O)N[C@@H](CCCCN)C(N)=O)[C@@H](C)O` [compound 24] (Ac-LEGREKVRAK(Ac)I[Aib][Aib]EG[Nle]STWS[Aib]RKK-NH2) was run?
Its Emax is 92%.

How did the Emax turn out when `CCCC[C@H](NC(=O)CNC(=O)[C@H](CCC(=O)O)NC(=O)C(C)(C)NC(=O)C(C)(C)NC(=O)[C@@H](NC(=O)[C@H](CCCCNC(C)=O)NC(=O)[C@H](C)NC(=O)[C@H](CCCNC(=N)N)NC(=O)[C@@H](NC(=O)[C@H](CCCCN)NC(=O)[C@H](CCC(=O)O)NC(=O)[C@H](CCCNC(=N)N)NC(=O)CNC(=O)[C@H](CCC(=O)O)NC(=O)[C@H](CC(C)C)NC(C)=O)C(C)C)[C@@H](C)CC)C(=O)N[C@@H](CO)C(=O)N[C@H](C(=O)N[C@@H](Cc1c[nH]c2ccccc12)C(=O)N[C@@H](CO)C(=O)N[C@@H](CCCCNC(C)=O)C(=O)N[C@@H](CCCNC(=N)N)C(=O)N[C@@H](CCCCN)C(=O)N[C@@H](CCCCN)C(N)=O)[C@@H](C)O` [compound 25] (Ac-LEGREKVRAK(Ac)I[Aib][Aib]EG[Nle]STWSK(Ac)RKK-NH2) was run?
Its Emax is 100%.

What about the EC50 of the same molecule?
Its EC50 is ≤ 5 nM.

For `CCCC[C@H](NC(=O)CNC(=O)[C@H](CCC(=O)O)NC(=O)C(C)(C)NC(=O)C(C)(C)NC(=O)[C@@H](NC(=O)[C@H](CCCCNC(C)=O)NC(=O)[C@H](C)NC(=O)[C@H](CCCNC(=N)N)NC(=O)[C@@H](NC(=O)[C@H](CCCCN)NC(=O)[C@H](CCC(=O)O)NC(=O)[C@H](CCCNC(=N)N)NC(=O)CNC(=O)[C@H](CCC(=O)O)NC(=O)[C@H](CC(C)C)NC(C)=O)C(C)C)[C@@H](C)CC)C(=O)N[C@@H](CO)C(=O)N[C@H](C(=O)N[C@@H](Cc1c[nH]c2ccccc12)C(=O)N[C@@H](CO)C(=O)NC(C)(C)C(=O)N[C@@H](CCCNC(=N)N)C(=O)N[C@@H](CCCCNC(C)=O)C(=O)N[C@@H](CCCCN)C(N)=O)[C@@H](C)O` [compound 27] (Ac-LEGREKVRAK(Ac)I[Aib][Aib]EG[Nle]STWS[Aib]RK(Ac)K-NH2), which Emax is on record?
Its Emax is 95%.

What about the EC50 of the same molecule?
The EC50 was 9.5 nM.

Which Emax does the source give for `CCCC[C@H](NC(=O)CNC(=O)[C@H](CCC(=O)O)NC(=O)C(C)(C)NC(=O)C(C)(C)NC(=O)[C@@H](NC(=O)[C@H](CCCCNC(C)=O)NC(=O)[C@H](C)NC(=O)[C@H](CCCNC(=N)N)NC(=O)[C@@H](NC(=O)[C@H](CCCCN)NC(=O)[C@H](CCC(=O)O)NC(=O)[C@H](CCCNC(=N)N)NC(=O)CNC(=O)[C@H](CCC(=O)O)NC(=O)[C@H](CC(C)C)NC(C)=O)C(C)C)[C@@H](C)CC)C(=O)N[C@@H](CO)C(=O)N[C@H](C(=O)N[C@@H](Cc1c[nH]c2ccccc12)C(=O)N[C@@H](CO)C(=O)NC(C)(C)C(=O)N[C@@H](CCCNC(=N)N)C(=O)N[C@@H](CCCCNC(C)=O)C(=O)N[C@@H](CCCCNC(C)=O)C(N)=O)[C@@H](C)O` [compound 28] (Ac-LEGREKVRAK(Ac)I[Aib][Aib]EG[Nle]STWS[Aib]RK(Ac)K(Ac)-NH2) here?
Its Emax is 92%.

Which Emax does the source give for `CCCC[C@H](NC(=O)CNC(=O)[C@H](CCC(=O)O)NC(=O)C(C)(C)NC(=O)C(C)(C)NC(=O)[C@@H](NC(=O)[C@H](CCCCNC(C)=O)NC(=O)[C@H](C)NC(=O)[C@H](CCCNC(=N)N)NC(=O)[C@@H](NC(=O)[C@H](CCCCN)NC(=O)[C@H](CCC(=O)O)NC(=O)[C@H](CCCNC(=N)N)NC(=O)CNC(=O)[C@H](CCC(=O)O)NC(=O)[C@H](CC(C)C)NC(C)=O)C(C)C)[C@@H](C)CC)C(=O)N[C@@H](CO)C(=O)N[C@H](C(=O)N[C@@H](Cc1cccc2ccccc12)C(=O)N[C@@H](CO)C(=O)NC(C)(C)C(=O)N[C@@H](CCCNC(=N)N)C(=O)N[C@@H](CCCCN)C(=O)N[C@@H](CCCCNC(C)=O)C(N)=O)[C@@H](C)O` [compound 29] (Ac-LEGREKVRAK(Ac)I[Aib][Aib]EG[Nle]ST[1Nal]S[Aib]RKK(Ac)-NH2) here?
Its Emax is 98%.

`CCCC[C@H](NC(=O)CNC(=O)[C@H](CCC(=O)O)NC(=O)C(C)(C)NC(=O)C(C)(C)NC(=O)[C@@H](NC(=O)[C@H](CCCCNC(C)=O)NC(=O)[C@H](C)NC(=O)[C@H](CCCNC(=N)N)NC(=O)[C@@H](NC(=O)[C@H](CCCCN)NC(=O)[C@H](CCC(=O)O)NC(=O)[C@H](CCCNC(=N)N)NC(=O)CNC(=O)[C@H](CCC(=O)O)NC(=O)[C@H](CC(C)C)NC(C)=O)C(C)C)[C@@H](C)CC)C(=O)N[C@@H](CO)C(=O)N[C@H](C(=O)N[C@@H](Cc1c[nH]c2ccccc12)C(=O)N[C@@](C)(CO)C(=O)NC(C)(C)C(=O)N[C@@H](CCCNC(=N)N)C(=O)N[C@@H](CCCCN)C(=O)N[C@@H](CCCCNC(C)=O)C(N)=O)[C@@H](C)O` [compound 30] (Ac-LEGREKVRAK(Ac)I[Aib][Aib]EG[Nle]STW[αMeS][Aib]RKK(Ac)-NH2) was tested. Which Emax did it give?
Its Emax is 93%.

With `CCCC[C@H](NC(=O)CNC(=O)[C@H](CCC(=O)O)NC(=O)C(C)(C)NC(=O)C(C)(C)NC(=O)[C@@H](NC(=O)[C@H](CCCCNC(C)=O)NC(=O)[C@H](C)NC(=O)[C@H](CCCNC(=N)N)NC(=O)[C@@H](NC(=O)[C@H](CCCCN)NC(=O)[C@H](CCC(=O)O)NC(=O)[C@H](CCCNC(=N)N)NC(=O)CNC(=O)[C@H](CCC(=O)O)NC(=O)[C@H](CC(C)C)NC(C)=O)C(C)C)[C@@H](C)CC)C(=O)N[C@@H](CO)C(=O)N[C@H](C(=O)N[C@@H](Cc1c[nH]c2ccccc12)C(=O)N[C@@H](CO)C(=O)NC(C)(C)C(=O)N[C@@H](CCCNC(=N)N)C(=O)N[C@@H](CCCCN)C(=O)N[C@@H](CCC(N)=O)C(N)=O)[C@@H](C)O` [compound 31] (Ac-LEGREKVRAK(Ac)I[Aib][Aib]EG[Nle]STWS[Aib]RKQ-NH2) as the molecule, how does the Emax read?
The Emax was 96%.
